The supplement of paper PMC10307832

Key:
Assay in all cases: relative viability (nuclei count vs DMSO), 5 days (fraction); higher = more cells survive
Doramapimod + Olaparib = compound: Cc1ccc(-n2nc(C(C)(C)C)cc2NC(=O)Nc2ccc(OCCN3CCOCC3)c3ccccc23)cc1 [Doramapimod] + O=C(c1cc(Cc2n[nH]c(=O)c3ccccc23)ccc1F)N1CCN(C(=O)C2CC2)CC1 [Olaparib] (partner 8 µM)
Outline: (§1)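 Each reported value is a median over duplicate plates. It expresses relative viability: treated-well nuclei count divided by vehicle-well nuclei count. Lung cancer cell lines in 1536-well plates were dosed by pin tool a day after seeding, alone with one drug or with a fixed anchor-drug dose plus five library-drug doses (not always all listed) in √10 steps, and nuclei were counted after 5 days.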

Doramapimod + Lapatinib = compound: Cc1ccc(-n2nc(C(C)(C)C)cc2NC(=O)Nc2ccc(OCCN3CCOCC3)c3ccccc23)cc1 [Doramapimod] + CS(=O)(=O)CCNCc1ccc(-c2ccc3ncnc(Nc4ccc(OCc5cccc(F)c5)c(Cl)c4)c3c2)o1 [Lapatinib] (partner 2 µM)
Outline: as §1

IPA-3 + Pictilisib = compound: C1=CC=C2C(=C1)C=CC(=C2SSC3=C(C=CC4=CC=CC=C43)O)O [IPA-3] + CS(=O)(=O)N1CCN(Cc2cc3nc(-c4cccc5[nH]ncc45)nc(N4CCOCC4)c3s2)CC1 [Pictilisib] (partner 1 µM)
Outline: as §1

IPA-3 + Palbociclib = compound: C1=CC=C2C(=C1)C=CC(=C2SSC3=C(C=CC4=CC=CC=C43)O)O [IPA-3] + CC(=O)c1c(C)c2cnc(Nc3ccc(N4CCNCC4)cn3)nc2n(C2CCCC2)c1=O [Palbociclib] (partner 0.5 µM)
Outline: as §1

Cell Line	relative viability (Doramapimod + Olaparib; first compound 0.02 µM)	relative viability (Doramapimod + Olaparib; first compound 0.06325 µM)	relative viability (Doramapimod + Olaparib; first compound 0.2 µM)	relative viability (Doramapimod + Olaparib; first compound 0.6325 µM)	relative viability (Doramapimod + Olaparib; first compound 2 µM)	relative viability (Doramapimod + Lapatinib; first compound 0.02 µM)	relative viability (Doramapimod + Lapatinib; first compound 0.06325 µM)	relative viability (Doramapimod + Lapatinib; first compound 0.2 µM)	relative viability (Doramapimod + Lapatinib; first compound 0.6325 µM)	relative viability (Doramapimod + Lapatinib; first compound 2 µM)	relative viability (IPA-3 + Pictilisib; first compound 0.2 µM)	relative viability (IPA-3 + Pictilisib; first compound 0.6325 µM)	relative viability (IPA-3 + Pictilisib; first compound 2 µM)	relative viability (IPA-3 + Pictilisib; first compound 6.325 µM)	relative viability (IPA-3 + Pictilisib; first compound 20 µM)	relative viability (IPA-3 + Palbociclib; first compound 0.2 µM)	relative viability (IPA-3 + Palbociclib; first compound 0.6325 µM)	relative viability (IPA-3 + Palbociclib; first compound 2 µM)	relative viability (IPA-3 + Palbociclib; first compound 6.325 µM)	relative viability (IPA-3 + Palbociclib; first compound 20 µM)
NCI-H2347	0.618	0.641	0.546	0.575	0.53	0.932	0.897	0.969	0.67	0.875	0.423	0.644	0.522	0.717	0.605	0.409	0.45	0.429	0.414	0.448
LXF-289	1.03	1.01	1.05	1.08	1.02	0.851	0.924	0.912	0.871	0.834	0.85	0.703	0.772	0.791	0.918	0.606	0.579	0.556	0.568	0.642
NCI-H1793	0.741	0.816	0.768	1.08	0.821	0.514	0.89	0.515	0.678	0.82	0.318	0.352	0.314	0.367	0.418	0.345	0.288	0.311	0.318	0.371
LU99A	0.273	0.304	0.27	0.259	0.256	0.959	1	0.981	1.1	0.897	0.353	0.317	0.333	0.321	0.277	0.437	0.376	0.425	0.452	0.394
PC-14	0.351	0.36	0.342	0.281	0.269	0.292	0.322	0.346	0.425	0.319	1.1	0.562	0.804	0.678	1.19	0.648	0.324	0.512	0.446	0.352
NCI-H2085	0.886	0.844	0.756	0.871	0.823	0.79	0.764	0.749	0.836	0.707	0.44	0.44	0.447	0.426	0.535	0.474	0.457	0.471	0.436	0.54
NCI-H2170	0.596	0.643	0.57	0.588	0.605	0.298	0.285	0.259	0.316	0.259	0.324	0.302	0.303	0.303	0.346	0.447	0.389	0.364	0.334	0.441
HCC-78	0.779	0.715	0.796	0.856	0.729	0.745	0.936	0.79	0.837	0.885	0.23	0.218	0.229	0.229	0.282	0.53	0.435	0.485	0.486	0.484
